# Biological target: T1, liver carnitine palmitoyl transferase 1 (L-CPT1) (Homo sapiens, UniProt P50416)
# T1 construct: made in house; host or cells: Pichia pastoris strain X-33 (crude cell-free extract)
# T1 sequence (P50416 1-773): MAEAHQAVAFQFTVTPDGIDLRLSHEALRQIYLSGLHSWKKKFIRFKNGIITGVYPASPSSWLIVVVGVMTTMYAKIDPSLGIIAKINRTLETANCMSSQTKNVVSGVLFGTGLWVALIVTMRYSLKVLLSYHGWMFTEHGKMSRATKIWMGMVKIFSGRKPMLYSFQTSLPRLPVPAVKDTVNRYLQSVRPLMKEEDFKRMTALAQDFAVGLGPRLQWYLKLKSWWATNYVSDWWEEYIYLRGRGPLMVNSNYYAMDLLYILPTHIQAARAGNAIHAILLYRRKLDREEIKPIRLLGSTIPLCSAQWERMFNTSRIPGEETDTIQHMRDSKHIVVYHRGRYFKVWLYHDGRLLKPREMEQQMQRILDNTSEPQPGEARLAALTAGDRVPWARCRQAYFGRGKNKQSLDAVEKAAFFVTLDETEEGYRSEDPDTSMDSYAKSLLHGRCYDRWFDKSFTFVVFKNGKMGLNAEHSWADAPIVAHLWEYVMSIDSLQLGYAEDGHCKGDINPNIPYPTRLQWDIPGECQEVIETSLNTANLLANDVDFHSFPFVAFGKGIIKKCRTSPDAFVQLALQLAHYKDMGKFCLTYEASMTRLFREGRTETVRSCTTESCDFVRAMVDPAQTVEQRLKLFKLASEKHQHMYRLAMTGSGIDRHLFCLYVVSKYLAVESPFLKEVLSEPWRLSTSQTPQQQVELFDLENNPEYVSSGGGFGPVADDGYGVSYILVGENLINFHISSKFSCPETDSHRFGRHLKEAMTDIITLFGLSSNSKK
# Assay: L-CPT1 inhibition, spectrophotometric CPT activity assay with DTNB (Ellman's reagent)
# Type: biochemical
# Details: human liver CPT1 expressed in P. pastoris, cell extracts; carnitine 500 μM, palmitoyl-CoA 80 μM, DTNB 300 μM, pH 7.4
# Experimental: The following tests were carried out in order to determine the activity of the compounds of the present invention. Background information on the performed assays can be found in: Jackson et al., 1999, Biochem. J. 341, 483-489 and Jackson et al., 2000, J. Biol. Chem. 275, 19560-19566.
# Human liver and muscle CPT1 cDNAs and rat CPT2 cDNA were subcloned in pGAPZB or pGAPZA, respectively. These plasmids were used to transform P. pastoris strain X-33 via electroporation after the preparation of electrocompetent cells. High copy number clones were selected where necessary using 0.5 or 1 mg/ml Zeocin. Cultures for activity measurements were induced for 16 h in YPD medium (1% yeast extract, 2% peptone, 2% glucose). Crude cell extracts were prepared by disrupting the cells with glass beads or French Press, depending on fermenter sizes. After centrifugation, the cell-free extracts were resuspended in cell breaking buffer (50 mM Tris, pH7.4, 100 mM KCl, 1 mM EDTA) in the presence of a protease inhibitor cocktail, before aliquoting and freezing at −20° C.
# CPT activity was measured using a spectrophotometric assay using 5,5′-dithio-bis-(2-nitrobenzoic acid) (DTNB) also called Ellman's reagent. The HS-CoA released on the formation of acylcarnitine from carnitine (500 μM) and palmitoyl-CoA (80 μM) reduced DTNB (300 μM) forming 5-mercapto-(2-nitrobenzoic acid) which absorbed at 410 nm with a molar extinction coefficient of 13600 M^−1cm^−1. The assay buffer contained 120 mM KCl, 25 mM Tris, pH 7.4, 1 mM EDTA. This assay was used for the identification of selective inhibitors of the liver CPT1 isoform versus the muscle CPT1 and CPT2 isoforms.
row,Structure (SMILES),IC50 [µM]
1,"O=C(COc1ccccc1)N1CCCC[C@@H]1c1csc(-c2ccccn2)n1 [Example 34, 2-Phenoxy-1-[(R)-2-(2-pyridin-2-yl-thiazol-4-yl)-piperidin-1-yl]-ethanone]",0.176
2,"O=C(COc1ccccc1)N1CCCC[C@@H]1c1csc(-c2ccc(F)cc2)n1 [Example 35, 1-{(R)-2-[2-(4-Fluoro-phenyl)-thiazol-4-yl]-piperidin-1-yl}-2-phenoxy-ethanone]",0.155
3,"COC(=O)c1ccc(-c2nc([C@H]3CCCCN3C(=O)COc3ccccc3)cs2)cc1 [Example 36, 4-{4-[(R)-1-(2-Phenoxy-acetyl)-piperidin-2-yl]-thiazol-2-yl}-benzoic acid methyl ester]",0.365
4,"O=C(COc1ccccc1)N1CCCC[C@@H]1c1csc(Cc2ccc(Cl)cc2)n1 [Example 37, 1-{(R)-2-[2-(4-Chloro-benzyl)-thiazol-4-yl]-piperidin-1-yl}-2-phenoxy-ethanone]",0.725
5,"O=C(COc1ccccc1)N1CCCC[C@@H]1c1csc(C2COc3ccccc3O2)n1 (stereo partly drawn) [Example 38, 1-{(R)-2-[2-(2,3-Dihydro-benzo[1,4]dioxin-2-yl)-thiazol-4-yl]-piperidin-1-yl}-2-phenoxy-ethanone]",0.398
6,"O=C(O)c1ccc(-c2nc([C@H]3CCCCN3C(=O)COc3ccccc3)cs2)cc1 [Example 41, 4-{4-[(R)-1-(2-Phenoxy-acetyl)-piperidin-2-yl]-thiazol-2-yl}-benzoic acid]",0.296
7,"COC(=O)c1cccc(-c2nc([C@H]3CCCCN3C(=O)COc3ccccc3)sc2C)c1 [Example 45, 3-{5-Methyl-2-[(R)-1-(2-phenoxy-acetyl)-piperidin-2-yl]-thiazol-4-yl}-benzoic acid methyl ester]",0.3

# Compounds with a lower IC50, results first:
row,IC50 [µM],Structure (SMILES)
1,0.1,"Cc1sc([C@H]2CCCCN2C(=O)COc2ccccc2)nc1-c1cccc(C(=O)O)c1 [Example 46, 3-{5-Methyl-2-[(R)-1-(2-phenoxy-acetyl)-piperidin-2-yl]-thiazol-4-yl}-benzoic acid]"
2,0.0803,"O=C(O)c1cccc(-c2nc([C@H]3CCCCN3C(=O)COc3ccccc3)cs2)c1 [Example 40, 3-{4-[(R)-1-(2-Phenoxy-acetyl)-piperidin-2-yl]-thiazol-2-yl}-benzoic acid]"
3,0.0377,"O=C(O)c1cccc(-c2csc([C@H]3CCCCN3C(=O)COc3ccccc3)n2)n1 [Example 42, 6-{2-[(R)-1-(2-Phenoxy-acetyl)-piperidin-2-yl]-thiazol-4-yl}-pyridine-2-carboxylic acid]"
4,0.0241,"O=C(O)c1cccc(-c2csc([C@H]3CCCCN3C(=O)COc3ccccc3)n2)c1 [Example 44, Sodium; 3-{2-[(R)-1-(2-phenoxy-acetyl)-piperidin-2-yl]-thiazol-4-yl}-benzoate]"
